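Results reflect a 48-hour exposure of cells in 96-well plates to compound at five concentrations. At the GI50, growth is halved. TGI marks complete inhibition of growth.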
Experiments:
Assay in all cases: growth of human tumour cells (NCI), 48 h
T-47D breast = tested on: T-47D breast
SW-620 colon = tested on: SW-620 colon
LOX IMVI melanoma = tested on: LOX IMVI melanoma
CCRF-CEM leukemia = tested on: CCRF-CEM leukemia
HL-60(TB) leukemia = tested on: HL-60(TB) leukemia
OVCAR-5 ovarian = tested on: OVCAR-5 ovarian
786-0 renal = tested on: 786-0 renal
UO-31 renal = tested on: UO-31 renal
NCI-H522 lung = tested on: NCI-H522 lung
SK-MEL-5 melanoma = tested on: SK-MEL-5 melanoma
PC-3 prostate = tested on: PC-3 prostate
A549 NSCLC = tested on: A549 NSCLC
BT-549 breast = tested on: BT-549 breast
SF-539 CNS = tested on: SF-539 CNS
MCF7 breast = tested on: MCF7 breast
HT29 colon = tested on: HT29 colon
MOLT-4 leukemia = tested on: MOLT-4 leukemia
KM12 colon = tested on: KM12 colon
HCT-116 colon = tested on: HCT-116 colon
SF-268 CNS = tested on: SF-268 CNS
NCI/ADR-RES ovarian = tested on: NCI/ADR-RES ovarian
RPMI-8226 leukemia = tested on: RPMI-8226 leukemia
OVCAR-8 ovarian = tested on: OVCAR-8 ovarian
NCI-H226 lung = tested on: NCI-H226 lung
SR leukemia = tested on: SR leukemia
ACHN renal = tested on: ACHN renal
CAKI-1 renal = tested on: CAKI-1 renal
NCI-H460 lung = tested on: NCI-H460 lung
HOP-62 NSCLC = tested on: HOP-62 NSCLC
OVCAR-3 ovarian = tested on: OVCAR-3 ovarian
M14 melanoma = tested on: M14 melanoma
U251 CNS = tested on: U251 CNS
MDA-MB-231 breast = tested on: MDA-MB-231 breast
HCC-2998 colon = tested on: HCC-2998 colon
K-562 leukemia = tested on: K-562 leukemia
SK-MEL-28 melanoma = tested on: SK-MEL-28 melanoma
TK-10 renal = tested on: TK-10 renal
SNB-19 CNS = tested on: SNB-19 CNS
IGROV1 ovarian = tested on: IGROV1 ovarian
SN12C renal = tested on: SN12C renal
SNB-75 CNS = tested on: SNB-75 CNS
UACC-257 melanoma = tested on: UACC-257 melanoma
OVCAR-4 ovarian = tested on: OVCAR-4 ovarian
MALME-3M melanoma = tested on: MALME-3M melanoma
A498 renal = tested on: A498 renal
NCI-H23 lung = tested on: NCI-H23 lung
DU-145 prostate = tested on: DU-145 prostate
SK-OV-3 ovarian = tested on: SK-OV-3 ovarian
MDA-MB-435 = tested on: MDA-MB-435
COLO 205 colon = tested on: COLO 205 colon
EKVX NSCLC = tested on: EKVX NSCLC
SK-MEL-2 melanoma = tested on: SK-MEL-2 melanoma
UACC-62 melanoma = tested on: UACC-62 melanoma
HCT-15 colon = tested on: HCT-15 colon
HOP-92 NSCLC = tested on: HOP-92 NSCLC
HS 578T breast = tested on: HS 578T breast
RXF 393 renal = tested on: RXF 393 renal
SF-295 CNS = tested on: SF-295 CNS

## CN1CCN(c2nc(-c3cnc4ccccc4n3)cc3ccccc23)CC1
T-47D breast
  GI50: 12.4 µM
  TGI: 31.2 µM
SW-620 colon
  GI50: 2.22 µM
  TGI: 5.11 µM
LOX IMVI melanoma
  GI50: 2.82 µM
  TGI: 7.66 µM
CCRF-CEM leukemia
  GI50: 9.44 µM
  TGI: > 90.3 µM
HL-60(TB) leukemia
  GI50: 4.21 µM
  TGI: 9.46 µM
OVCAR-5 ovarian
  GI50: > 36 µM
  TGI: > 72.9 µM
786-0 renal
  GI50: 10.9 µM
  TGI: 24 µM
UO-31 renal
  GI50: 3.67 µM
  TGI: > 49.3 µM
NCI-H522 lung
  GI50: 18.1 µM
  TGI: > 56.8 µM
SK-MEL-5 melanoma
  GI50: 7.39 µM
  TGI: > 50.4 µM
PC-3 prostate
  GI50: 10.3 µM
  TGI: > 100 µM
A549 NSCLC
  GI50: > 32.1 µM
  TGI: > 100 µM
BT-549 breast
  GI50: 39.6 µM
  TGI: > 79.3 µM
SF-539 CNS
  GI50: 8 µM
  TGI: > 51.2 µM
MCF7 breast
  GI50: 6.61 µM
  TGI: 20.7 µM
HT29 colon
  GI50: 3.39 µM
  TGI: 11.7 µM
MOLT-4 leukemia
  GI50: 4.7 µM
  TGI: > 48.9 µM
KM12 colon
  GI50: > 64.6 µM
  TGI: > 100 µM
HCT-116 colon
  GI50: 3.51 µM
  TGI: 8.19 µM
SF-268 CNS
  GI50: > 46.8 µM
  TGI: > 100 µM
NCI/ADR-RES ovarian
  GI50: 21.5 µM
  TGI: > 100 µM
RPMI-8226 leukemia
  GI50: 3.04 µM
  TGI: 13 µM
OVCAR-8 ovarian
  GI50: 10.3 µM
  TGI: > 100 µM
NCI-H226 lung
  GI50: 35.8 µM
  TGI: > 100 µM
SR leukemia
  GI50: 2.02 µM
  TGI: 6.04 µM
ACHN renal
  GI50: 9.5 µM
  TGI: > 66.3 µM
CAKI-1 renal
  GI50: 9.79 µM
  TGI: > 100 µM
NCI-H460 lung
  GI50: 3.67 µM
  TGI: 13.1 µM
HOP-62 NSCLC
  GI50: > 38.2 µM
  TGI: > 58.9 µM
OVCAR-3 ovarian
  GI50: 18.8 µM
  TGI: > 100 µM
M14 melanoma
  GI50: 1.88 µM
  TGI: 3.65 µM
U251 CNS
  GI50: 8 µM
  TGI: > 48.4 µM
MDA-MB-231 breast
  GI50: 6.47 µM
  TGI: > 50.3 µM
HCC-2998 colon
  GI50: 2.17 µM
  TGI: 5.11 µM
K-562 leukemia
  GI50: 2.3 µM
  TGI: 6.34 µM
SK-MEL-28 melanoma
  GI50: 2.29 µM
  TGI: 5.27 µM
TK-10 renal
  GI50: > 41.8 µM
  TGI: > 62.7 µM
SNB-19 CNS
  GI50: > 53.7 µM
  TGI: > 100 µM
IGROV1 ovarian
  GI50: 7.96 µM
  TGI: > 55.2 µM
SN12C renal
  GI50: 12.6 µM
  TGI: > 48.6 µM
SNB-75 CNS
  GI50: 16.7 µM
  TGI: > 88.6 µM
UACC-257 melanoma
  GI50: 1.89 µM
  TGI: 3.91 µM
OVCAR-4 ovarian
  GI50: > 43.8 µM
  TGI: > 91.1 µM
MALME-3M melanoma
  GI50: 4.45 µM
  TGI: 9.15 µM
A498 renal
  GI50: > 68.4 µM
  TGI: > 100 µM
NCI-H23 lung
  GI50: 30.7 µM
  TGI: > 100 µM
DU-145 prostate
  GI50: > 52.1 µM
  TGI: > 100 µM
SK-OV-3 ovarian
  GI50: > 44.8 µM
  TGI: > 72 µM
MDA-MB-435
  GI50: 3.53 µM
  TGI: 12.7 µM
COLO 205 colon
  GI50: 1.84 µM
  TGI: 3.67 µM
EKVX NSCLC
  GI50: > 56.8 µM
  TGI: > 100 µM
SK-MEL-2 melanoma
  GI50: 30.8 µM
  TGI: > 54.7 µM
UACC-62 melanoma
  GI50: 2.84 µM
  TGI: 8.23 µM
HCT-15 colon
  GI50: 2.95 µM
  TGI: 9.19 µM
HOP-92 NSCLC
  GI50: 2.76 µM
  TGI: > 69.7 µM
HS 578T breast
  GI50: 15.1 µM
  TGI: > 67.6 µM
RXF 393 renal
  GI50: 4.97 µM
  TGI: 15.1 µM
SF-295 CNS
  GI50: 7.88 µM
  TGI: 20.3 µM
